The text below walks through data of article PMC5344518, “Anti-trypanosomal activity of non-peptidic nitrile-based cysteine protease inhibitors” (PLoS Neglected Tropical Diseases, 2017).

Marks after values point to notes of the source that are not given here.

In data set [1] the test system is Cathepsin S. The note with it: pIC50 = -log10(IC50/M); cited from earlier work.
Data set [2] addresses T1, cathepsin L (Homo sapiens, UniProt P07711). Put plainly: Enzyme kinetic assay for cathepsin L. In kind it is biochemical. The note with it: pKi = -log10(Ki/M); uncertainty in parentheses; 37°C, pH 5.5. On the procedure: Enzyme kinetic assays for cathepsin L were performed in a similar manner to the cruzain assays at 37°C in 200 μL of a solution containing 100 mM acetate buffer pH 5.5, 300 mM NaCl, 1 mM dithiothreitol (DTT), 1 mM EDTA, 5% v/v dimethyl sulfoxide (DMSO), 0.01% v/v Triton X-100 and 0.30 nM cathepsin L, using Corning® 96-well black flat bottom microplates. Using the QFRET technology, compounds 9–12 were tested for inhibition of cathepsin L-mediated cleavage of a synthetic peptide Z-Phe-Arg-AMC (10 μM final concentration) using 0.1 nM [final] human Cat L (prepared in-house). […]

Data set [3] deals with amastigote forms of T. cruzi CL Brener strain. The data set is described as follows: Anti-trypanosomal activity assay (beta-galactosidase reporter, infected LLC-MK2 cells). The data set is classed as cell-based. The note with it: Trypanosoma cruzi. How it is done: Assays were performed against amastigote forms of T. cruzi CL Brener strain, which expresses β-galactosidase derived from Escherichia coli, infecting monkey kidney (LLC-MK2) cells as described. Previously, LLC-MK2 host cells were cultivated in 96-wells microplates (10^3 cells/well). […] Then, the wells were washed with PBS to remove the extracellular parasites and the tested compounds were added in the final concentrations of 0.031, 0.125, 0.5, 2.0, 8.0, 32.0, 128 and 512 μM. After this, the microplates were incubated at 37°C, in CO2 atmosphere (5%), for 5 days. Then, 10 μL of FluoReporter lacZ/Galactosidase Quantitation Kit (Molecular Probes, ThermoFisher Scientific) were added and after 30 minutes the fluorometric reaction was read in a microplate reader (Synergy H1, Biotek) at 386 nm excitation and 448 nm emission. The metabolism of the substrate is directly correlated with the amount of β-galactosidase activity and, therefore, the number amastigotes. The percentage of activity for each compound was determined from the following formula: %activity = 100 –{[(X-PC)/(NC-PC)]x100}, where the optical density values of the samples (X), the positive controls (PC) and negative controls (NC) were used. Culture medium alone was used as positive control (PC) and cells with medium and 0.6% DMSO (v/v) as negative control (NC). All assays were performed in triplicate with two independent experiments.

For data set [4], the system named is Cathepsin K. The note with it: pIC50 = -log10(IC50/M); cited from earlier work.
The target of data set [5] is T2, Recombinant cruzain (Trypanosoma cruzi, UniProt P25779).
T2 construct: consisting of the catalytic domain of cruzipain but excluding the carboxy-terminal extension; made in house
T2 sequence (P25779 123-337 limits assumed): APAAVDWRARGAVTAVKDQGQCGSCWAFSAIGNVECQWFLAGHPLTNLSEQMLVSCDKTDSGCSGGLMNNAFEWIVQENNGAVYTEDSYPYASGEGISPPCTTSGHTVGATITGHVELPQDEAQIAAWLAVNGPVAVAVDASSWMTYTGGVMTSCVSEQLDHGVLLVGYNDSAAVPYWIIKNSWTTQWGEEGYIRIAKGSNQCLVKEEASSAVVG
The data set is described as follows: Enzyme kinetic assay for cruzain (Z-FR-AMC hydrolysis). The data set is classed as biochemical. The note with it: pKi = -log10(Ki/M); uncertainty in parentheses; 37°C, pH 5.5. How it is done: Recombinant cruzain, consisting of the catalytic domain of cruzipain but excluding the carboxy-terminal extension, was expressed and purified as previously described. Enzyme kinetic assays for cruzain were carried out at 37°C in 200 μL of a solution containing 100 mM acetate buffer pH 5.5, 300 mM NaCl, 5 mM dithiothreitol (DTT), 5% v/v dimethyl sulfoxide (DMSO), 0.01% v/v Triton X-100 and 0.15 nM cruzain, using Corning® 96-well black flat bottom microplates. (S)-N-(1-((cyanomethyl)amino)-1-oxo-3-phenylpropan-2-yl)benzamide was used as a positive control. The rate of the reaction was monitored using a Biotek Synergy HT plate reader through the fluorescence emission at 460 nm (excitation at 355 nm) due to the hydrolysis of the substrate Z-Phe-Arg-7-amido-4-methylcoumarin (Z-FR-AMC, Sigma-Aldrich). The enzyme stock aliquot was rapidly thawed at 37°C and kept on ice until activation, in which it was incubated for 20 min. in the assay buffer (100 mM acetate pH 5.5 and 5 mM DTT) followed by additional 2 min. incubation with inhibitors before the reaction was started by the addition of the substrate.
Visual inspection and a pre-reading of plate wells were performed to check for possible precipitation and background fluorescence, respectively. Fluorescence emission spectra were also recorded for all inhibitors, using the same excitation wavelength (355 nm) as for the fluorometric assay. […] The reaction was started by the addition of varying concentrations of the substrate and the wells monitored for a total of 5 minutes of reaction. The initial velocities of the substrate hydrolysis under first-order reaction were calculated by Gen5 Biotek software based on the linear-regression coefficient from the data fitting of Relative Fluorescence Unit (mRFU) as a function of time (min).
Each experiment was performed in duplicates for each compound being tested. A control measurement in absence of inhibitor (KM) was carried out for each setup plate and the kinetic affinity constants (Ki) were calculated from non-linear fit of Michaelis-Menten curves to the data of initial velocities as a function of eight different concentrations of the substrate Z-FR-AMC from 30.0–0.8 μM. All inhibitors were evaluated in two different concentrations, which were chosen based on a previous screening (percentage of inhibition) at 1.7 μM substrate (~KM). SigmaPlot (v. 10.0) was employed for the non-linear fit and the kinetic parameters determination.

Data set [6] deals with T1, cathepsin L. The note with it: pIC50 = -log10(IC50/M); cited from earlier work.
Data set [7] deals with Cathepsin B. The note with it: pIC50 = -log10(IC50/M); cited from earlier work.
Data set [8] deals with Balb/C 3T3 clone A31 cells. The data set is described as follows: MTT colorimetric cytotoxicity assay. The data set is classed as cell-based, mouse. The note with it: % cytotoxicity in Balb/C 3T3 clone A31 cells at 128 μM; standard deviation (N = 8) in parentheses. How it is done:
Inhibition values were determined in the cell-based assay as previously described. […] Cells were plated at a concentration of 10^5 cell/mL in 96-well plates and incubated for 24 h. […] The cell viability was assessed during 24, 48 and 72 h using the MTT (Sigma-Aldrich) reagent, with an incubation time of 3 h. Formazan crystals were dissolved using a solubility reagent composed of DMSO, glacial acetic acid and […] for 1 h. The readout was obtained using Biotek Synergy HT plate reader at 570 nm. Benznidazole was used as control. This assay was done in quadruplicate in two independent experiments. Statistical analyses were made in GraphPad Prism 5. Concentration-response curves were fitted for the best compounds and the statistical parameters are provided with the graphs in S9 Fig in the supplemental material.
(Tetrazolium dyes change colour on reduction, which living cells bring about.)

The test system of data set [9] is LLC-MK2 cells. The data set is described as follows: Cytotoxicity in LLC-MK2 cells. The data set is classed as cell-based, monkey. The note with it: % cytotoxicity in LLC-MK2 cells at 128 μM; standard deviation (N = 6) in parentheses. The text has this: Table 2 Anti-trypanosomal activity of cysteine protease inhibitors. | column: Cytotox LLC-MK2 ^c

T1 sequence (P07711 114-333, species assumed): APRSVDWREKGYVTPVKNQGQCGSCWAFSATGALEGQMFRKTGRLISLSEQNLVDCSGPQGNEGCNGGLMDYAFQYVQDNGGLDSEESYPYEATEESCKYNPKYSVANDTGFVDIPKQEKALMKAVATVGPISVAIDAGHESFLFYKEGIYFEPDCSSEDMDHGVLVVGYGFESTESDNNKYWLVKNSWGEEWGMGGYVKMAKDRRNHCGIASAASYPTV

Usually Ki stands for a measure of affinity in units of concentration, obtained from inhibition or displacement. Regarding `CC(C)(F)C[C@H](N[C@@H](c1ccc(-c2ccc(S(C)(=O)=O)cc2)cc1)C(F)(F)F)C(=O)NC1(C#N)CC1` [Compound 4, odanacatib], the “Cathepsin S pIC50” value in data set [1] is listed as 7.2 ^d. In addition, the Ki in data set [2] is 6310 nM; in [5], 126 nM. Further, the EC50 in [3] (120 h, pEC50 = -log10(EC50/M), T. cruzi CL Brener amastigotes in LLC-MK2 cells, 5 days, read-out: pEC50 (anti-trypanosomal activity) (converted)) was 2510 nM. In data set [3] (LLC-MK2, 0.125 μM, standard deviation (N = 6) in parentheses, read-out: %activity at 0.125 μM), the inhibition at 0.125 µM is 22%. For the same compound, in data set [3] (LLC-MK2, 0.5 μM, standard deviation (N = 6) in parentheses, read-out: %activity at 0.5 μM), the inhibition at 0.5 µM was 28%. The inhibition at 2 µM in data set [3] (LLC-MK2, 2 μM, standard deviation (N = 6) in parentheses, read-out: %activity at 2 μM) amounted to 36%. In data set [3] (LLC-MK2, 8 μM, standard deviation (N = 6) in parentheses, read-out: %activity at 8 μM), the inhibition at 8 µM came out at 44%. In addition, in [4], the “Cathepsin K pIC50” value is 9.7 ^d. Besides, the “Cathepsin L pIC50” value in [6] is reported as 5.5 ^d. Moreover, the “Cathepsin B pIC50” value in data set [7] was 6.0 ^d. Besides, the “Cytotox Balb/C 3TC” value in data set [8] is 27 (15) %. In data set [9], the “Cytotox LLC-MK2” value is 31 (4) %.
